logP and chromatographic logP data for 65 molecules are collected here from patent US20210387964A1, “HETEROARYLAMINOQUINOLINES AND ANALOGUES” (Bayer Aktiengesellschaft, priority 2018, published 2021).

The first data set can be described thus: log P by HPLC on reversed-phase column (C 18), EEC Directive 79/831 Annex V.A8.
Settings: not given
It is filed as physicochemical. The procedure:
In table 1, the log P values were determined in accordance with EEC Directive 79/831 Annex V.A8 by HPLC (High Performance Liquid Chromatography) on a reversed-phase column (C 18), using the method described below: […] If more than one Log P value is available within the same method, all the values are given and separated by “;”.
For the molecule `Cc1nc2ccccc2nc1Nc1cccnc1-c1ccnn1C` [I.01], the logP came out at 1.88.
As for `Cn1nccc1-c1ncccc1Nc1cnc2c(F)cccc2c1` [I.02], the logP came to 1.72.
As for `Cc1c(Nc2ccsc2-c2ccnn2C)cnc2ccccc12` [I.03], the logP was 1.39.
`Cc1nc2ccccc2nc1Nc1ccsc1-c1ccnn1C` [I.04]: the logP came out at 2.47.
Same read-out and setting: the value for `Cn1nccc1-c1sccc1Nc1cnc2c(F)cccc2c1` [I.05] was 2.49; that for `CCn1nccc1-c1sccc1Nc1cnc2ccccc2c1C` [I.06] was 1.60; that for `CCn1nccc1-c1sccc1Nc1nc2ccccc2nc1C` [I.07] was 2.80.
Same read-out and setting: the value for `Cn1nccc1-c1ncccc1Nc1cnc2ccccc2c1Cl` [I.08] was 2.02.
As to `Cn1nccc1-c1ncccc1Nc1cnc2c(F)c(F)ccc2c1` [I.09], the logP is recorded as 1.93.
Molecule `Cn1nccc1-c1ncccc1Nc1cnc2c(F)c(F)ccc2n1` [I.10] gave a logP of 2.13.
As to `CCn1nccc1-c1sccc1Nc1cnc2c(F)cccc2c1` [I.11], the log partition coefficient (logP) was 2.75.
In the case of `Cn1nccc1-c1sccc1Nc1cnc2ccccc2c1Cl` [I.12], the logP was found to be 2.66.
In the case of `Cn1nccc1-c1sccc1Nc1cnc2c(F)c(F)ccc2c1` [I.13, 7,8-difluoro-N-[2-(1-methyl-1H-pyrazol-5-yl)-3-thienyl]quinolin-3-amine], the chromatographic logP stood at 2.71.
As to `Cn1nccc1-c1sccc1Nc1cnc2c(F)c(F)ccc2n1` [I.14], the logP is 2.94.
Still for that read-out and setting: the value for `Cc1nc2c(F)c(F)ccc2cc1Cc1cccnc1-c1ccnn1C` [I.15] was 2.17; that for `Cc1nc2c(F)c(F)ccc2cc1Nc1cccnc1-c1ccnn1C` [I.16] was 2.04.
Still for that read-out and setting: the value for `Cc1nc2c(F)c(F)ccc2nc1Nc1cccnc1-c1ccnn1C` [I.17] was 2.23; that for `Cc1nc2c(F)c(F)ccc2cc1Cc1cccnc1-c1ccsc1` [I.18] was 2.05.
Still for that read-out and setting: in the case of `Cc1nc2c(F)c(F)ccc2nc1Nc1cncnc1-c1ccnn1C` [I.19] it was 2.00; in that of `CCn1nccc1-c1sccc1Nc1cnc2ccccc2c1Cl` [I.20], 2.98; in that of `Cc1nc2c(F)c(F)ccc2cc1Nc1ccsc1-c1ccnn1C` [I.21], 2.74.
The molecule `CCn1nccc1-c1sccc1Nc1cnc2c(F)c(F)ccc2c1` [I.22] showed a logP of 2.92.
On the same count and under the same terms, the value for `CCn1nccc1-c1sccc1Nc1cnc2c(F)c(F)ccc2n1` [I.23] was 3.29; that for `Cc1nc2c(F)c(F)ccc2nc1Nc1ccsc1-c1ccnn1C` [I.24] was 2.90.
Still for that read-out and setting: the value for `CCn1nccc1-c1sccc1Nc1cc2ccc(F)c(F)c2nc1C` [I.25] was 3.11; that for `CCn1nccc1-c1sccc1Nc1nc2ccc(F)c(F)c2nc1C` [I.26] was 3.27.
In turn, `CCCn1nccc1-c1cnccc1Nc1nc2ccc(F)c(F)c2nc1C` [I.27] gave a logP of 2.33.
On the same count and under the same terms, the value for `CCn1nccc1-c1c(F)cncc1Nc1cc2ccc(F)c(F)c2nc1C` [I.28] was 2.60.
In turn, `Cc1nc2c(F)c(F)ccc2cc1Nc1ccnc(Cl)c1-c1ccnn1C` [I.29, N-[2-chloro-3-(1-methyl-1H-pyrazol-5-yl)pyridin-4-yl]-7,8-difluoro-2-methylquinolin-3-amine] had a chromatographic logP of 2.27.
Molecule `CCn1nccc1-c1c(Nc2nc3ccc(F)c(F)c3nc2C)cncc1OC` [I.30] displayed a log partition coefficient (logP) of 2.28.
Still for that read-out and setting: the value for `CCCn1nccc1-c1c(F)cncc1Nc1cc2ccc(F)c(F)c2nc1C` [I.31] was 2.86; that for `CCn1nccc1-c1c(Cl)cncc1Nc1nc2ccc(F)c(F)c2nc1C` [I.32] was 3.06.
Same read-out and setting: the value for `CCCn1nccc1-c1c(Nc2nc3ccc(F)c(F)c3nc2C)cncc1OC` [I.33] was 2.64; that for `CCCn1nccc1-c1c(Nc2cc3ccc(F)c(F)c3nc2C)ccnc1Cl` [I.34] was 2.82.
For the molecule `CCCn1nccc1-c1c(Cl)cncc1Nc1nc2ccc(F)c(F)c2nc1C` [I.35, N-[5-chloro-4-(1-propyl-1H-pyrazol-5-yl)pyridin-3-yl]-5,6-difluoro-3-methylquinoxalin-2-amine], the chromatographic logP turned out to be 3.44.
Molecule `Cn1nccc1-c1cscc1Cc1cnc2c(F)cccc2c1` [I.36] registered a logP of 2.49.
Still for that read-out and setting: the value for `Fc1cccc2cc(Cc3cscc3-c3ccsc3)cnc12` [I.37] was 3.77.
Take `Cc1nc2c(F)c(F)ccc2cc1Cc1cscc1-c1ccnn1C` [I.38, 7,8-difluoro-2-methyl-3-{[4-(1-methyl-1H-pyrazol-5-yl)-3-thienyl]methyl}quinoline]: the chromatographic logP was 3.01.
As to `Cc1nc2c(F)c(F)ccc2cc1Cc1cscc1-c1ccsc1` [I.39], the logP stood at 4.47.
Same read-out and setting: the value for `CCCn1nccc1-c1c(C)cncc1Nc1cc2ccc(F)c(F)c2nc1C` [I.40] was 2.11; that for `CCn1nccc1-c1c(F)cncc1Nc1cc2ccc(F)c(OC)c2nc1C` [I.41] was 2.22; that for `CCn1nccc1-c1c(Nc2cc3ccc(F)c(F)c3nc2C)cncc1OC` [I.42] was 2.06.
For `CCn1nccc1-c1c(Cl)cncc1Nc1cc2ccc(F)c(F)c2nc1C` [I.43], the logP is 2.86.
`CCCn1nccc1-c1c(F)cncc1Nc1cc2ccc(F)c(OC)c2nc1C` [I.44] came in with a logP of 2.51.
The same measure, in the same setting: the value for `CCCn1nccc1-c1c(Nc2cc3ccc(F)c(F)c3nc2C)cncc1OC` [I.45] was 2.30; that for `CCCn1nccc1-c1c(Cl)cncc1Nc1cc2ccc(F)c(F)c2nc1C` [I.46] was 3.20.
The same measure, in the same setting: the value for `CCOCn1nccc1-c1ccsc1Cc1cnc2c(F)cccc2c1` [I.47] was 3.10; that for `CCOCn1nccc1-c1ccsc1Cc1cc2ccc(F)c(F)c2nc1C` [I.48] was 3.64; that for `Cc1nc2c(F)c(F)ccc2cc1Cc1cccnc1Br` [IIa.01] was 2.92.
On the same count and under the same terms, in the case of `CS(=O)(=O)N(c1cnc2c(F)cccc2c1)c1cccnc1Cl` [IIa.02] it was 2.07.
The molecule `Cc1nc2c(F)c(F)ccc2nc1Nc1cnccc1Cl` [IIc.01] had a logP of 2.41.
Still for that read-out and setting: the value for `Cc1nc2c(F)c(F)ccc2cc1Nc1cncc(F)c1I` [IIc.02] was 2.94.
Consider `Fc1cccc2cc(Cc3cscc3Br)cnc12` [IIf.01], for which the logP came to 3.36.
Take `Cc1nc2c(F)c(F)ccc2cc1Cc1cscc1Br` [IIf.02, 3-[(4-bromo-3-thienyl)methyl]-7,8-difluoro-2-methylquinoline]: the chromatographic logP came to 4.
In the case of `Fc1cccc2cc(Cc3sccc3Br)cnc12` [IIg.01], the logP turned out to be 3.50.
`Cc1nc2c(F)c(F)ccc2cc1Cc1sccc1Br` [IIg.02] registered a logP of 4.19.
With `CCn1nccc1-c1ccncc1Cl` [IXc.01, 3-chloro-4-(1-ethyl-1H-pyrazol-5-yl)pyridine], the chromatographic logP came out at 1.73.
Turning to `Cn1nccc1-c1sccc1Br` [IXe.01, 5-(3-bromo-2-thienyl)-1-methyl-1H-pyrazole], the chromatographic logP worked out at 2.29.
As for `CCn1nccc1-c1sccc1Br` [IXe.02, 5-(3-bromo-2-thienyl)-1-ethyl-1H-pyrazole], the chromatographic logP was 2.72.
`CCCn1nccc1-c1ccncc1N` [XIc.01, 4-(1-propyl-1H-pyrazol-5-yl)pyridin-3-amine]: the chromatographic logP is 0.11.
`CCn1nccc1-c1c(N)cncc1OC` [XIc.02, 4-(1-ethyl-1H-pyrazol-5-yl)-5-methoxypyridin-3-amine]: the chromatographic logP came to 0.08.
On the same count and under the same terms, in the case of `CCn1nccc1-c1c(N)cncc1Cl` [XIc.03, 5-chloro-4-(1-ethyl-1H-pyrazol-5-yl)pyridin-3-amine] it was 1.3; in that of `CCCn1nccc1-c1c(N)cncc1OC` [XIc.04, 5-methoxy-4-(1-propyl-1H-pyrazol-5-yl)pyridin-3-amine], 0.45.
For `CCCn1nccc1-c1c(N)cncc1Cl` [XIc.05, 5-chloro-4-(1-propyl-1H-pyrazol-5-yl)pyridin-3-amine], the chromatographic logP is 1.64.

Still in this data set, the particulars now being: HPLC, reversed-phase C 18, 40° C., 0.1% aqueous formic acid and acetonitrile, gradient 10% to 95% acetonitrile.
In turn, “3-bromo-2-(1-methyl-1H-pyrazol-5-yl)pyridine [IXa.01]” came in with a logP of 1.53.

Broadly, the logP is a log measure of how a compound divides between an organic and an aqueous phase. A higher logP goes with higher lipophilicity. What is called chromatographic logP is a lipophilicity value derived from retention on a column. Read a low chromatographic logP as a more hydrophilic compound.
